pIC50: −log10 of the molar value. Read-outs that look alike come from different tables or passages of the source.
Legend:
L1210 = assay: cells; format: cell-based, mouse
Experimental: (§1) A population of cells (>1×10^6 cells/mL as determined with a hemocytometer) was diluted with Dulbecco's Modified Eagle Medium (DMEM, Gibco) containing 10% fetal bovine serum (FBS, Gibco) to give a final concentration of 30,000 cells/mL. To each well of a 96-well plate (Corning® Costar®) was added 100 μL of the cell media solution with a multichannel pipet.
(§2) The test compounds were then added to the plate as follows: test compounds were diluted in DMSO to a concentration of 1 mM. 10-Fold serial dilutions in DMSO were next performed on a separate 96-well plate. Fresh culture media (100 μL) was added to each well of cells resulting in 200 μL of medium per well followed by 2 μL of each test agent. Compounds were tested in duplicate (n=2-8 times) at six concentrations between 0-1000 nM or 0-10000 nM. Following the addition of compound, cultures were incubated for an additional 72 hours.
(§3) The plates were incubated at 37° C. for 5 minutes (L1210) or 15 min (HCT116 and HCT116/VM46).

HCT116 = assay: cells; format: cell-based, human; details: for pIC50: read-out: IC50 HCT116; for potency relative to vinblastine (more potent): vinblastine-sensitive cell lines
Experimental: as §1, §2, §3

Compound | pIC50 (L1210; Table 2) | pIC50 (HCT116; Table 2) | further results
CC[C@]1(NC(=O)c2ccc(OC(C)(C)C)cc2)C[C@H]2CN(CCc3c([nH]c4ccccc34)[C@@](C(=O)OC)(c3cc4c(cc3OC)N(C)[C@H]3[C@@](O)(C(=O)OC)[C@H](OC(C)=O)[C@]5(CC)C=CCN6CC[C@]43[C@@H]65)C2)C1 [Compound 75] | 9.22 | 9.22 | 
CC[C@]1(NC(=O)c2cccc(F)c2)C[C@H]2CN(CCc3c([nH]c4ccccc34)[C@@](C(=O)OC)(c3cc4c(cc3OC)N(C)[C@H]3[C@@](O)(C(=O)OC)[C@H](OC(C)=O)[C@]5(CC)C=CCN6CC[C@]43[C@@H]65)C2)C1 [Compound 45] | 8.24 | 8.28 | 
CCC1(NC(=O)c2ccc(OC(C)C)cc2)CC2CN(CCc3c([nH]c4ccccc34)C(C(=O)OC)(c3cc4c(cc3OC)N(C)C3C(O)(C(=O)OC)C(OC(C)=O)C5(CC)C=CCN6CCC43C65)C2)C1 (centres unmarked) [Compound 74] | 9.15 | 9.10 | potency relative to vinblastine (more potent) (HCT116): 10 fold
CC[C@]1(NC(=O)c2ccccc2C)C[C@H]2CN(CCc3c([nH]c4ccccc34)[C@@](C(=O)OC)(c3cc4c(cc3OC)N(C)[C@H]3[C@@](O)(C(=O)OC)[C@H](OC(C)=O)[C@]5(CC)C=CCN6CC[C@]43[C@@H]65)C2)C1 [Compound 27] | 7.26 | 7.30 | 
CCC1(NC(=O)c2ccc3ccccc3n2)CC2CN(CCc3c([nH]c4ccccc34)C(C(=O)OC)(c3cc4c(cc3OC)N(C)C3C(O)(C(=O)OC)C(OC(C)=O)C5(CC)C=CCN6CCC43C65)C2)C1 (centres unmarked) [Compound 152] |  |  | pIC50 (L1210; Table 6): 7.40; pIC50 (HCT116; Table 6): 7.40; loss in activity when acyl substitution site is ortho to the basic nitrogen (HCT116; quinolyl series): about 100 fold
CCC1(NS(=O)(=O)c2cccc3c(N(C)C)cccc23)CC2CN(CCc3c([nH]c4ccccc34)C(C(=O)OC)(c3cc4c(cc3OC)N(C)C3C(O)(C(=O)OC)C(OC(C)=O)C5(CC)C=CCN6CCC43C65)C2)C1 (centres unmarked) [Compound 186] |  |  | pIC50 (L1210; Table 7, C20′ sulfonamides): 7.52; pIC50 (HCT116; Table 7, C20′ sulfonamides): 7.52
CC[C@]1(NC(=O)C2CCCC2)C[C@H]2CN(CCc3c([nH]c4ccccc34)[C@@](C(=O)OC)(c3cc4c(cc3OC)N(C)[C@H]3[C@@](O)(C(=O)OC)[C@H](OC(C)=O)[C@]5(CC)C=CCN6CC[C@]43[C@@H]65)C2)C1 [Compound 19] |  |  | pIC50 (L1210; Table 1): 7.52; pIC50 (HCT116; Table 1): 7.60
CC[C@]1(NC(=O)c2ccc(OC(F)(F)F)cc2)C[C@H]2CN(CCc3c([nH]c4ccc(F)cc34)[C@@](C(=O)OC)(c3cc4c(cc3OC)N(C)[C@H]3[C@@](O)(C(=O)OC)[C@H](OC(C)=O)[C@]5(CC)C=CCN6CC[C@]43[C@@H]65)C2)C1 [Compound 188] |  |  | pIC50 (L1210; Table 8, 10′-F compounds): 9.22; pIC50 (HCT116; Table 8, 10′-F compounds): 9.15
CCC1(NC(=O)c2ccc(C3CCCCC3)cc2)CC2CN(CCc3c([nH]c4ccccc34)C(C(=O)OC)(c3cc4c(cc3OC)N(C)C3C(O)(C(=O)OC)C(OC(C)=O)C5(CC)C=CCN6CCC43C65)C2)C1 (centres unmarked) [Compound 43] | 7.40 | 7.52 | 
CCC1(NS(=O)(=O)c2c(C)cc(C)cc2C)CC2CN(CCc3c([nH]c4ccccc34)C(C(=O)OC)(c3cc4c(cc3OC)N(C)C3C(O)(C(=O)OC)C(OC(C)=O)C5(CC)C=CCN6CCC43C65)C2)C1 (centres unmarked) [Compound 184] |  |  | pIC50 (L1210; Table 7, C20′ sulfonamides): 6.30; pIC50 (HCT116; Table 7, C20′ sulfonamides): 6.24
CC[C@]1(NC(=O)c2cc(Cl)c(OC)c(Cl)c2)C[C@H]2CN(CCc3c([nH]c4ccccc34)[C@@](C(=O)OC)(c3cc4c(cc3OC)N(C)[C@H]3[C@@](O)(C(=O)OC)[C@H](OC(C)=O)[C@]5(CC)C=CCN6CC[C@]43[C@@H]65)C2)C1 [Compound 96] | 8.51 | 8.38 | 
CCC1(NC(=O)c2cccc(OC(F)(F)F)c2)CC2CN(CCc3c([nH]c4ccccc34)C(C(=O)OC)(c3cc4c(cc3OC)N(C)C3C(O)(C(=O)OC)C(OC(C)=O)C5(CC)C=CCN6CCC43C65)C2)C1 (centres unmarked) [Compound 79] | 8.32 | 8.23 | 
CCC1(NC(=O)c2cccs2)CC2CN(CCc3c([nH]c4ccccc34)C(C(=O)OC)(c3cc4c(cc3OC)N(C)C3C(O)(C(=O)OC)C(OC(C)=O)C5(CC)C=CCN6CCC43C65)C2)C1 (centres unmarked) [Compound 136] |  |  | pIC50 (L1210; Table 5): 9.22; activity relative to 20′ benzamide Compound 24 (better) (HCT116): roughly 2 fold; pIC50 (HCT116; Table 5): 9.22; potency relative to vinblastine (more potent) (HCT116): 10 fold
CCC1(NC(=O)c2cc(C)c(OC)c(C)c2)CC2CN(CCc3c([nH]c4ccccc34)C(C(=O)OC)(c3cc4c(cc3OC)N(C)C3C(O)(C(=O)OC)C(OC(C)=O)C5(CC)C=CCN6CCC43C65)C2)C1 (centres unmarked) [Compound 99] | 9.30 | 9.19 | potency relative to vinblastine (more potent) (HCT116): 10 fold
CCC1(NC(=O)c2ccc(CN)cc2)CC2CN(CCc3c([nH]c4ccccc34)C(C(=O)OC)(c3cc4c(cc3OC)N(C)C3C(O)(C(=O)OC)C(OC(C)=O)C5(CC)C=CCN6CCC43C65)C2)C1 (centres unmarked) [Compound 65] | 7.60 | 8.46 | 

Source: patent US10689381B2 (priority 2017, dated 2020)
